Converted amounts (≈) assume the structure as drawn.
Assays:
Assay type in all cases: cell-based
[1] = test system: Candida albicans ATCC 10231; test: Test for adequate preservation (European Pharmacopea), 1,2-diols and 1,2-diol mixtures in O/W emulsion; conditions: 3% diol(s) in O/W emulsion
Protocol: (§1) A test for adequate preservation was carried out in accordance with the European Pharmacopea. The test thus consists of the contamination of the formulation, if possible in its final ratio, with a prescribed inoculum of suitable microorganisms, storage of the inoculated formulation at a specific temperature, taking of samples from the vessel at specific intervals and determination of the number of microorganisms in the samples taken in this way. The preserving properties are adequate if, under the conditions of the test, there is a distinct reduction or optionally no increase in the germ count in the inoculated formulations after the prescribed times at the prescribed temperatures. Experimental details of the test procedure are described in the European Pharmacopea (ISBN 3-7692-2768-9; 2001 supplement to the 3rd Edition, page 421-422, chapter 5.1.3). The initial germ count (CFU/g; “0” value) was in the range of 240,000 to 300,000 in the various test series. For the tests for adequate preservation, (a) potentially synergistically active mixtures taken into account and (b), for comparison purposes, the corresponding unmixed 1,2-diols were incorporated in O/W emulsions. […] The variation in the total concentration of 1,2-diols or 1,2-diol mixtures in the O/W emulsions was compensated for by increasing or reducing the water content, so that otherwise identical formulations always comprised 100 parts by weight in total.

[2] = test system: Staphylococcus aureus ATCC 6538; test: as above; conditions: 3% diol(s) in O/W emulsion
Protocol: as §1

[3] = test system: Aspergillus niger ATCC 16404; test: as above; conditions: for germ count A. niger: 3% diol(s) in O/W emulsion; for reduction in the number of colony forming units (CFU) to the 0 value: Aspergillus niger, dosage of 3%, 28 days
Protocol: A test for adequate preservation was carried out in accordance with the European Pharmacopea. The test thus consists of the contamination of the formulation, if possible in its final ratio, with a prescribed inoculum of suitable microorganisms, storage of the inoculated formulation at a specific temperature, taking of samples from the vessel at specific intervals and determination of the number of microorganisms in the samples taken in this way. The preserving properties are adequate if, under the conditions of the test, there is a distinct reduction or optionally no increase in the germ count in the inoculated formulations after the prescribed times at the prescribed temperatures. Experimental details of the test procedure are described in the European Pharmacopea (ISBN 3-7692-2768-9; 2001 supplement to the 3rd Edition, page 421-422, chapter 5.1.3). The initial germ count (CFU/g; “0” value) was in the range of 240,000 to 300,000 in the various test series. For the tests for adequate preservation, (a) potentially synergistically active mixtures taken into account and (b), for comparison purposes, the corresponding unmixed 1,2-diols were incorporated in O/W emulsions. […] The variation in the total concentration of 1,2-diols or 1,2-diol mixtures in the O/W emulsions was compensated for by increasing or reducing the water content, so that otherwise identical formulations always comprised 100 parts by weight in total. […] The Kull equation enables the pure substances and the active compound mixtures prepared therefrom to be compared in respect of their antimicrobial activity. With this equation the so-called synergy index (SI), which is a measure for a synergistic activity, but also for a possible antagonistic activity, of a mixture having an antimicrobial action, is determined. A synergistic effect is evident if the SI value determined is less than 1. On the other hand, if an SI of precisely 1 is calculated, there is a pure additive effect of two substances having an antimicrobial action. In the case of an SI value greater than 1, on the other hand, there is a (frequently undesired) antagonistic effect.

[4] = test system: Epidermophyton floccosum CBS 55384; test: MIC, agar dilution method; conditions: CBS55384, Mueller-Hinton agar, 18 h at 36° C.
Protocol: (§2) Petri dishes 9.0 cm in diameter were charged with 13.5 ml freshly prepared Mueller-Hinton agar (Merck, Ref. 1.05437 or Wilkins-Chalgren agar boullion, Oxoid, Ref. CM 643, supplemented with log agar-agar/liter) kept liquid at 50° C., to which the various concentrations of the diluted samples were added in 10% (V/V)=1.5 ml. Mueller-Hinton agar that contained 3% Tween80 (Merck, Ref. 8.22 187) was used for the test germ Malassezia furfur. In each case 5 ml of the samples were diluted in distilled water and made up to 10 ml. The further test concentrations of the particular dilution series, which were prepared in the form of geometric series, were prepared by progressive 1:2 dilution of this batch with distilled water. […] Two agar plates were poured per test concentration and nutrient medium. After solidification and drying (approx. 1 h at 37° C.), the test plates were inoculated in point form with, in each case, 1 μl of the test germ suspensions listed below. To check purity and identity the bacteria that grow aerobically (Brevibacterium epidermidis, Corynebacterium xerosis, Staphylococcus epidermidis) were [lacuna] on Columbia blood agar (BioMérieux, Ref. 43049). The mould Aspergillus niger, the yeast Candida albicans and the two skin fungi Trichophyton mentagrophytes and Epidermophyton floccosum were cultured on Sabouraud agar (BioMérieux, Ref. 43555). Malassezia furfur was cultured on Sabourad HLT agar with disinhibitors (addition of 3% Tween80: 1%; lecithin: 0.3%; histidine: 0.1%; Merck, Ref. 1.18368). Propionibacterium acnes was cultured on Schaedler agar (BioMérieux, Ref. 43273). Further details on the test germs can be taken from Table 5. For preparation of the other test germ suspensions, the test strains were cultured on the abovementioned solid nutrient medium, harvested using sterile swabs and taken up or diluted in such an amount of Mueller-Hinton broth that the turbidity of the suspensions corresponded to McFarland standard 0.5. All test germ suspensions with the exception of Propionibacterium acnes were diluted again 1:10 with sterile broth and the germ count thereof was determined by the surface method using a Spiralometer (results: see Table 5). The MIC (minimum inhibitory concentration) was regarded as the lowest concentration of active compound at which macroscopically there is no growth. Minimal, barely visible growth or few small individual colonies were evaluated as inhibition.

[5] = test system: Malassezia furfur DSM 6171; test: MIC, agar dilution method; conditions: DSM6171, Mueller-Hinton agar + 3% Tween 80, 72 h at 30° C.
Protocol: as §2

[6] = test system: Trichophyton mentagrophytes CBS 26379; test: MIC, agar dilution method; conditions: CBS26379, Mueller-Hinton agar, 72 h at 30° C.
Protocol: as §2

Structure (SMILES) | germ count C. albicans ([1]; 0′-count (initial germ count)) | germ count C. albicans ([1]; 24 h) | germ count C. albicans ([1]; 48 h) | germ count C. albicans ([1]; 4 d) [CFU/ml] | germ count C. albicans ([1]; 7 d) [CFU/ml] | germ count C. albicans ([1]; 14 d) [CFU/ml] | germ count C. albicans ([1]; 28 d) [CFU/ml] | germ count Staph. aureus ([2]; 0′-count (initial germ count)) | germ count Staph. aureus ([2]; 24 h) [CFU/ml] | germ count Staph. aureus ([2]; 48 h) [CFU/ml] | germ count Staph. aureus ([2]; 7 d) [CFU/ml] | germ count Staph. aureus ([2]; 14 d) [CFU/ml] | germ count Staph. aureus ([2]; 28 d) [CFU/ml] | germ count A. niger ([3]; 0′-count (initial germ count)) | germ count A. niger ([3]; 24 h) | germ count A. niger ([3]; 48 h) | germ count A. niger ([3]; 4 d) | germ count A. niger ([3]; 7 d) | germ count A. niger ([3]; 14 d) | germ count A. niger ([3]; 28 d) [CFU/ml] | further results
CCCCC(O)CO (centres unmarked) [HE3, 1,2-hexanediol] | 250,000 CFU/ml | 120,000 CFU/ml | 5,600 CFU/ml | 0 | 0 | 0 | 0 | 240,000 CFU/ml | <100 | <100 | 0 | 0 | 0 | 260,000 CFU/ml | 120,000 CFU/ml | 120,000 CFU/ml | 120,000 CFU/ml | 80,000 CFU/ml | 28,000 CFU/ml | 800 | germ count A. niger ([3]; 14 d, listed as 1,2-hexanediol): 28000 CFU/ml; reduction in the number of colony forming units (CFU) to the 0 value [3]: did not enable a reduction in the number of colony forming units (CFU) to the desired 0 value; MIC [4]: 6250 µg/mL (≈ 52.9 mM); MIC [5]: 12.5 mg/mL; MIC [6]: 6300 µg/mL (≈ 53.3 mM)
CCCCCCC(O)CO (centres unmarked) [OC3, 1,2-octanediol] | 250,000 CFU/ml | 3,200 CFU/ml | <100 CFU/ml | 0 | 0 | 0 | 0 | 240,000 CFU/ml | 0 | 0 | 0 | 0 | 0 | 260,000 CFU/ml | 55,000 CFU/ml | 6,000 CFU/ml | 6,000 CFU/ml | 1,100 CFU/ml | 1,000 CFU/ml | 100 | germ count A. niger ([3]; 14 d, listed as 1,2-octanediol): 1000 CFU/ml; reduction in the number of colony forming units (CFU) to the 0 value [3]: did not enable a reduction in the number of colony forming units (CFU) to the desired 0 value; MIC [4]: 3120 µg/mL (≈ 21.4 mM); MIC [5]: 50 mg/mL; MIC [6]: 1560 µg/mL (≈ 10.7 mM)
